Data: PubChem BioAssay (NCI)
“And” between values parts separate entries of the source, which are not always exact repeats. Equal values may be shown once.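 96-well plates; 48 h exposure; 5 concentrations. Endpoints by linear interpolation between flanking doses. Not reached: highest tested concentration assigned. The concentration for 50% growth inhibition is given as GI50. At the TGI there is no net growth.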

How the values were obtained:
Assay in all cases: NCI-60 cell line screen, 48 h
[1] = system: HCT-116 colon
[2] = system: SF-539 CNS
[3] = system: BT-549 breast
[4] = system: MCF7 breast
[5] = system: SF-268 CNS
[6] = system: SF-295 CNS
[7] = system: SN12C renal
[8] = system: U251 CNS
[9] = system: SNB-75 CNS
[10] = system: NCI-H226 lung

Structure (SMILES)	GI50 [1]	TGI [1] [µM]	GI50 [2] [µM]	TGI [2] [µM]	GI50 [3] [µM]	TGI [3] [µM]	GI50 [4]	TGI [4] [µM]	GI50 [5] [µM]	TGI [5] [µM]	GI50 [6]	TGI [6] [µM]	TGI [7] [µM]	GI50 [8]	TGI [8] [µM]	GI50 [9]	TGI [9] [µM]	GI50 [10] [µM]	TGI [10] [µM]	GI50 [7] [µM]
COc1ccc2c(c1)C(=O)c1c-2n(CCCCl)c(=O)c2cc(N)ccc12	> 57.9 µM	> 100	> 100	> 100	> 100	> 100	34.8 µM	> 100	> 75.4	> 100	> 64.6 µM	> 100	97.4	> 51.6 µM	> 100	> 51.7 µM	> 85.7	> 80.7	> 100	
CCN(CC)CCCNc1cc(OC)c(OC)c2cccnc12	2.18 µM	7.58	8.01	23	18.6	36.5	1.71 µM	5.47	14.4	46.3	7.74 µM	33.1	7.7	3.71 µM	21	3.05 µM	14.8	15.2	37.7	2.47
O=C(COc1cccc(/C=C2\Oc3ccc4ccccc4c3C2=O)c1)c1ccc([N+](=O)[O-])cc1	16.5 µM	40.9	14	32.1	17.3	37.6	11.1 µM	28.6	13.3	27.2	57.4 µM	> 100	32.5	14.7 µM	27.8	18.9 µM	53	16.1	37.8	13.9
CC1(C)CC[C@]2(CO)CC[C@]3(C)C(=CC[C@@H]4[C@@]5(C)CCNCC(C)(C)[C@@H]5CC[C@]43C)[C@@H]2C1	3.13 µM	12.4	10.6	23.1	4.79	18.3	3.07 µM	13.3	8.98	25.4	1.93 µM	3.97	16.9	3.53 µM	13.5	10.1 µM	23	16.8	35.5	4.08
COc1ccc(C(Nc2ccccn2)c2cc(C(C)(C)C)cc(C(C)(C)C)c2O)cc1 (centres undefined)		> 100		> 100		56.8		> 100		> 100		59.3	> 100		> 100		49.4		47.9	
OCC1OC(n2cnc3c(NCc4ccco4)ncnc32)C(O)C1O (centres undefined)	0.338 µM	1.59	3.07	13.6	0.421	2.64	0.72 µM	> 25.5	4.28	> 100	1.21 µM	8.3	> 100	4.43 µM	> 100	1.73 µM	> 28.1	12	> 71.2	0.386
CC(=N\O)/C(C)=N/O.CC(=N\O)/C(C)=N/O.[Fe].[NH2-].c1c[nH]cn1	> 100 µM	> 100	> 100	> 100	> 100	> 100	> 100 µM	> 100	> 100	> 100	> 100 µM	> 100	> 100	> 100 µM	> 100	> 100 µM	> 100	> 100	> 100	> 100
CCC(C)C(=O)OC1CCC=C2C=CC(C)C(CCC3CC(O)CC(=O)O3)C21 (centres undefined)		> 100		> 29.5		73		> 72.2		> 100		> 100	> 100		> 100		> 75.9		> 100	
NC(Cc1c[nH]c2cccc(F)c12)C(=O)O (centres undefined)	43.8 µM and 305 µM	1000	381	3040	151	873	35.4 µM and 327 µM	1650	801	> 4500	39.5 µM and 176 µM	1190	> 4500	50.8 µM and 340 µM	1280	77.2 µM and 726 µM	2790	3210	> 4500	959
CC[Si](CC)(CC)OC1[C@@H](O[Si](CC)(CC)CC)[C@@H](CNC(=O)NC)O[C@H]1n1cnc2c(NC(=O)Nc3ccccc3)ncnc21 (some centres undefined)	3.26 µM	15.2	7.02	> 100	3	12.2	3.24 µM	14.3	4.67	> 100	2.89 µM	11.7	4.92	4.06 µM	> 100	3.95 µM	> 100	5.11	> 100	2.04
C/C(=N\NC(=S)N1CCN(c2ccccn2)CC1)c1cccc2cccnc12		6.71		> 31.6		> 100		> 100		> 100		55.8	34.8		> 29.7		> 70.2		38.4	
Oc1cc(O)c2c(c1)OC(c1ccc(O)c(O)c1)C(O)C2c1c(O)cc(O)c2c1OC(c1ccc(O)c(O)c1)C(O)C2 (centres undefined)		> 100		> 100		> 100		> 100		> 100		> 100	> 100		> 100		> 100		> 100	
C/C=C(\C)C(=O)O[C@@H]1C=CC(=O)O[C@H]1CNC(=O)[C@H](C)O	9.48 µM	24.2	23.3	57.5	12.5	28	15 µM	46.7	17	51.3	27.7 µM	> 66.7	> 75.6	20.5 µM	54.7	24.4 µM	> 74.3	28.9	> 81.4	26.9
O=C1c2ccccc2C(=O)c2sc(Nc3ccc([N+](=O)[O-])cc3)nc21		15.2		15.3		27.4		31		12.2		24.7	8.15		8.71		21.1		35.9	
O=C(O)c1[nH]c2c([N+](=O)[O-])cc([N+](=O)[O-])cc2c1C(=O)O		> 100		> 100		> 100		> 100		> 100		> 100	> 100		> 100		> 100		> 100	
CC1(C)CN(CCNc2nccc(-c3c(-c4cccc(O)c4)nc4sccn34)n2)S(=O)(=O)N1	5.05 µM	> 33.2	30	> 33.2	> 22.5	> 33.2	9.66 µM	> 33.2	21.8	> 33.2	17.7 µM	> 33.2	> 33.2	8.78 µM	> 33.2	5.14 µM	> 33.2	10.4	32.4	9.86
CCC(=C(c1ccc(OCCN2CCCC2)cc1)c1ccc(OCCN2CCCC2)cc1)c1ccc(Cl)cc1	0.545 µM	1.05	0.558	1.05	0.733	1.86	0.287 µM	0.822	0.612	1.25	0.637 µM	1.23	1.1	0.576 µM	1.14	0.921 µM	2.61	0.735	1.63	0.572
